# Structures can show the parent of a compound that is named as a salt.
# Experiments:
# Format in all cases: physicochemical
# [1] = Example 1: degree of browning (chromaticity) on storage with added glycine; settings: 1.5% solution, room temperature
# Experimental: (Effect of addition of ascorbic acid 2-glucoside arginine salt on change in degree of browning (chromaticity) of ascorbic acid by addition of amino acid) 100 ml of water was taken to dissolve 1.5% of ascorbic acid (ASA), and the solution was adjusted to pH 5.0 with a 1M of sodium hydroxide solution to obtain a test solution. Ascorbic acid 2-glucoside arginine salt (ASA2-G⋅Arg) is used as a test solution by dissolving 1.5% of the product of Production Example 1 in 100 ml of water. To each test solution, 0.2% glycine was added and dissolved to prepare a solution, and the solution was stored (at room temperature) for 20 months. This test solution was collected every designated month, the absorption spectrum (wavelength: 480 nm) was measured, the degree of browning (chromaticity) was evaluated, and the results are shown in FIG. 3.
# At time 0, the initial state immediately after the preparation was visually observed. In the other designated months, a spectrophotometer (absorption spectrum: wavelength 480 nm) was used for the measurement. In the case of ascorbic acid, browning started to occur at 4 months, transparency was visually observed, and light brown color remarkably appeared at 14 months. Meanwhile, in the ASA2-G⋅Arg added system, the initial state was confirmed.
# [2] = Example 2: degree of browning (chromaticity) on storage with added amino acid mixture; settings: 4% solution, room temperature
# Experimental: 4% of ascorbic acid (ASA) is dissolved in 200 ml of water, and the solution is adjusted to pH 5.0 with a 1M sodium hydroxide solution to obtain a test solution. Ascorbic acid 2-glucoside lysine salt (ASA2-G⋅Lys) (Production Example 2) is dissolved in the same manner by 4% to prepare a test solution. An amino acid mixture (histidine 1.5%, alanine 1.28, leucine 2.6%) was added to and dissolved in each test solution, and the solution was stored (at room temperature) for 20 months. Each test solution was collected every designated month, the absorption spectrum (wavelength: 480 nm) was measured, the degree of browning (chromaticity) was evaluated, and the results are shown in FIG. 4.
# [3] = Test system: browning of ascorbic acid caused by addition of an amino acid; settings: 10 days after production
# Experimental: For a reaction solution of ascorbic acid (1%) and amino acid (0.12%), the difference in degree of browning (chromaticity) based on the type of amino acid was examined for a 10 mM of phosphate citrate buffer solution pH 7.0. • Measurement wavelength: 480 nm, measurement time: 10 days after production
Compound,"appearance (transparency), visual observation ([1]; 0.2% glycine, 20 months)","absorbance (Abs) in the absorption spectrum ([1]; 480 nm, 0.2% glycine, 20 months)","appearance (color) ([2]; amino acid mixture, 20 months)","absorbance (Abs) of the absorption spectrum ([2]; 480 nm, amino acid mixture, 20 months)","degree of browning (chromaticity) ([3]; ascorbic acid 1% + amino acid 0.12% (glycine, histidine, lysine or alanine), 10 mM phosphate citrate buffer pH 7.0, 480 nm)","degree of browning ([3]; ascorbic acid 1% + glycine or histidine 0.12%, pH 7.0, 480 nm)","time at which browning started to occur ([1]; pH 5.0, 0.2% glycine) [months]","time at which light brown color remarkably appeared ([1]; pH 5.0, 0.2% glycine) [months]","time after which browning appeared ([2]; pH 5.0, amino acid mixture (histidine, alanine, leucine)) [months]"
"O=C1OC([C@@H](O)CO)C(O)=C1OC1O[C@H](CO)[C@@H](O)[C@H](O)[C@H]1O (stereo partly shown) [ASA2-G⋅Arg, ascorbic acid 2-glucoside arginine salt]",initial state,0.01,,,,,,,
"O=C1OC([C@@H](O)CO)C(O)=C1OC1O[C@H](CO)[C@@H](O)[C@H](O)[C@H]1O (stereo partly shown) [ASA2-G⋅Lys, ascorbic acid 2-glucoside lysine salt]",,,extremely light reddish brown color,0.017,,,,,
"O=C1O[C@H]([C@@H](O)CO)C(O)=C1O [ascorbic acid, (R)-3,4-dihydroxy-5-((S)-1,2-dihydroxyethyl) furan-2 (5H)-one]",,,reddish brown color,,high,remarkable,4,14,4

# — patent US20250017841A1, “COMPOUND CONTAINING ASCORBIC ACID DERIVATIVE” (DR'S CHOICE CO., LTD., priority 2021, published 2025)
